Reference: ChEMBL document CHEMBL4680318, “(S)-Erypoegin K, an isoflavone isolated from Erythrina poeppigiana, is a novel inhibitor of topoisomerase IIα: Induction of G2 phase arrest in human gastric cancer cells” (Bioorg Med Chem, 2021)
The source made the active and inactive calls. The rule behind the calls is not given here.

Tests used:
MKN-1 [1] = assay: Cytotoxicity against human MKN-1 cells assessed as reduction in cell viability measured after 48 hrs by MTS/CellTiter96 aqueous one solution cell proliferation assay; assay type: functional, cell-based; settings: MKN-1, 48 h
MKN-74 = assay: Growth inhibition of human MKN-74 cells measured after 48 hrs by sulforhodamine B assay; assay type: functional
GCIY [2] = assay: Cell cycle arrest in human GCIY cells assessed as accumulation at S phase at 0.1 uM measured after 24 hrs by propidium iodide staining based Muse cell analyzer (reference value: 25.7 +/- 0.7 %); assay type: functional
[3] = biological target: DNA topoisomerase 2-alpha (Homo sapiens) (UniProt P11388); assay: Inhibition of human DNA topoisomerase 2alpha assessed as suppression of decatenation using catenated kinetoplast DNA as substrate measured after 30 mins by ethidium bromide staining-based UV imaging analysis
GCIY [4] = assay: Induction of apoptosis in human GCIY cells assessed as activation of caspase 9 measured after 5 to 35 hrs by fluorescence assay; assay type: functional, cell-based; settings: dose 1-10 µM, time 5-35 hrs
DMS-114 = assay: Growth inhibition of human DMS-114 cells measured after 48 hrs by sulforhodamine B assay; assay type: functional
OVCAR-8 = assay: Growth inhibition of human OVCAR-8 cells measured after 48 hrs by sulforhodamine B assay; assay type: functional
PC-3 = assay: Growth inhibition of human PC-3 cells measured after 48 hrs by sulforhodamine B assay; assay type: functional
[5] = Growth inhibition of human HBC4 cells measured after 48 hrs by sulforhodamine B assay; assay type: functional
GCIY [6] = assay: Induction of apoptosis in human GCIY cells assessed as activation of caspase 3 at 1 to 10 uM by fluorescence assay; assay type: functional, cell-based; settings: dose 1-10 µM, time 5-35 hrs, TDE = time-dependent effect
NCI-H460 = assay: Growth inhibition of human NCI-H460 cells measured after 48 hrs by sulforhodamine B assay; assay type: functional
MKN-1 [7] = assay: Growth inhibition of human MKN-1 cells measured after 48 hrs by sulforhodamine B assay; assay type: functional
SK-OV-3 = assay: Growth inhibition of human SK-OV-3 cells measured after 48 hrs by sulforhodamine B assay; assay type: functional
MKN-1 [8] = assay: Cell cycle arrest in human MKN-1 cells assessed as accumulation at G2/M phase at 0.3 uM measured after 24 hrs by propidium iodide staining based Muse cell analyzer (reference value: 33.2 +/- 0.5 %); assay type: functional
GCIY [9] = assay: Cytotoxicity against human GCIY cells assessed as reduction in cell viability measured after 48 hrs by MTS/CellTiter96 aqueous one solution cell proliferation assay; assay type: functional, cell-based
[10] = biological target: DNA topoisomerase 2-alpha (Homo sapiens) (UniProt P11388); assay: Inhibition of human DNA topoisomerase 2alpha assessed as stabilization of DNA cleavage complex at 50 to 200 uM using supercoiled pSL1180 plasmid DNA as substrate measured after 30 mins by ethidium bromide staining-based UV imaging analysis; settings: dose 50-200 µM
MKN-1 [11] = assay: Cell cycle arrest in human MKN-1 cells assessed as accumulation at G0/G1 phase at 0.3 uM measured after 24 hrs by propidium iodide staining based Muse cell analyzer (reference value: 49.6 +/- 2.6 %); assay type: functional
SF-295 = assay: Growth inhibition of human SF-295 cells measured after 48 hrs by sulforhodamine B assay; assay type: functional
[12] = Growth inhibition of human BSY1 cells measured after 48 hrs by sulforhodamine B assay; assay type: functional; settings: BSY-1
MKN-1 [13] = assay: Cell cycle arrest in human MKN-1 cells assessed as accumulation at S phase at 0.1 uM measured after 24 hrs by propidium iodide staining based Muse cell analyzer (reference value: 15.5 +/- 0.2 %); assay type: functional
ACHN = assay: Growth inhibition of human ACHN cells measured after 48 hrs by sulforhodamine B assay; assay type: functional
HT-29 = assay: Growth inhibition of human HT-29 cells measured after 48 hrs by sulforhodamine B assay; assay type: functional
LOX IMVI = assay: Growth inhibition of human LOX IMVI cells measured after 48 hrs by sulforhodamine B assay; assay type: functional
OVCAR-4 = assay: Growth inhibition of human OVCAR-4 cells measured after 48 hrs by sulforhodamine B assay; assay type: functional
MKN-7 = assay: Growth inhibition of human MKN-7 cells measured after 48 hrs by sulforhodamine B assay; assay type: functional
MKN-1 [14] = assay: Cell cycle arrest in human MKN-1 cells assessed as accumulation at G0/G1 phase at 0.1 uM measured after 24 hrs by propidium iodide staining based Muse cell analyzer (reference value: 49.6 +/- 2.6 %); assay type: functional
RXF 631 = assay: Growth inhibition of human RXF 631 cells measured after 48 hrs by sulforhodamine B assay; assay type: functional
GCIY [15] = assay: Cell cycle arrest in human GCIY cells assessed as accumulation at G2/M phase at 0.1 uM measured after 24 hrs by propidium iodide staining based Muse cell analyzer (reference value: 28.9 +/- 1.3 %); assay type: functional
SNB-78 = assay: Growth inhibition of human SNB-78 cells measured after 48 hrs by sulforhodamine B assay; assay type: functional
A549 = assay: Growth inhibition of human A549 cells measured after 48 hrs by sulforhodamine B assay; assay type: functional
DMS-273 = assay: Growth inhibition of human DMS-273 cells measured after 48 hrs by sulforhodamine B assay; assay type: functional
HCT-116 = assay: Growth inhibition of human HCT-116 cells measured after 48 hrs by sulforhodamine B assay; assay type: functional
[16] = Growth inhibition of human HBC5 cells measured after 48 hrs by sulforhodamine B assay; assay type: functional
OVCAR-5 = assay: Growth inhibition of human OVCAR-5 cells measured after 48 hrs by sulforhodamine B assay; assay type: functional
[17] = Toxicity in KSN/Slc nude mouse xenografted with human GCIY cells assessed as effect on body weight at 40 mg/kg, ip administered twice a week for 4 weeks starting from day 4 post inoculation; assay type: organism-based; settings: in vivo, 672 h
MKN-1 [18] = assay: Induction of apoptosis in human MKN-1 cells assessed as activation of caspase 9 at 1 to 10 uM by fluorescence assay; assay type: functional, cell-based; settings: dose 1-10 µM, time 5-35 hrs, TDE = time-dependent effect
NCI-H522 = assay: Growth inhibition of human NCI-H522 cells measured after 48 hrs by sulforhodamine B assay; assay type: functional
GCIY [19] = assay: Cell cycle arrest in human GCIY cells assessed as accumulation at G2/M phase at 0.3 uM measured after 24 hrs by propidium iodide staining based Muse cell analyzer (reference value: 28.9 +/- 1.3 %); assay type: functional
MDA-MB-231 = assay: Growth inhibition of human MDA-MB-231 cells measured after 48 hrs by sulforhodamine B assay; assay type: functional
HCT-15 = assay: Growth inhibition of human HCT-15 cells measured after 48 hrs by sulforhodamine B assay; assay type: functional
OVCAR-3 = assay: Growth inhibition of human OVCAR-3 cells measured after 48 hrs by sulforhodamine B assay; assay type: functional
DU-145 = assay: Growth inhibition of human DU-145 cells measured after 48 hrs by sulforhodamine B assay; assay type: functional
HCC 2998 = assay: Growth inhibition of human HCC 2998 cells measured after 48 hrs by sulforhodamine B assay; assay type: functional
MKN-1 [20] = assay: Induction of apoptosis in human MKN-1 cells assessed as activation of caspase 9 measured after 5 to 35 hrs by fluorescence assay; assay type: functional, cell-based; settings: dose 1-10 µM, time 5-35 hrs
MKN-1 [21] = assay: Induction of apoptosis in human MKN-1 cells assessed as activation of caspase 3 measured after 5 to 35 hrs by fluorescence assay; assay type: functional, cell-based; settings: dose 1-10 µM, time 5-35 hrs

Chain of DNA topoisomerase 2-alpha (Homo sapiens) (P11388 whole entry): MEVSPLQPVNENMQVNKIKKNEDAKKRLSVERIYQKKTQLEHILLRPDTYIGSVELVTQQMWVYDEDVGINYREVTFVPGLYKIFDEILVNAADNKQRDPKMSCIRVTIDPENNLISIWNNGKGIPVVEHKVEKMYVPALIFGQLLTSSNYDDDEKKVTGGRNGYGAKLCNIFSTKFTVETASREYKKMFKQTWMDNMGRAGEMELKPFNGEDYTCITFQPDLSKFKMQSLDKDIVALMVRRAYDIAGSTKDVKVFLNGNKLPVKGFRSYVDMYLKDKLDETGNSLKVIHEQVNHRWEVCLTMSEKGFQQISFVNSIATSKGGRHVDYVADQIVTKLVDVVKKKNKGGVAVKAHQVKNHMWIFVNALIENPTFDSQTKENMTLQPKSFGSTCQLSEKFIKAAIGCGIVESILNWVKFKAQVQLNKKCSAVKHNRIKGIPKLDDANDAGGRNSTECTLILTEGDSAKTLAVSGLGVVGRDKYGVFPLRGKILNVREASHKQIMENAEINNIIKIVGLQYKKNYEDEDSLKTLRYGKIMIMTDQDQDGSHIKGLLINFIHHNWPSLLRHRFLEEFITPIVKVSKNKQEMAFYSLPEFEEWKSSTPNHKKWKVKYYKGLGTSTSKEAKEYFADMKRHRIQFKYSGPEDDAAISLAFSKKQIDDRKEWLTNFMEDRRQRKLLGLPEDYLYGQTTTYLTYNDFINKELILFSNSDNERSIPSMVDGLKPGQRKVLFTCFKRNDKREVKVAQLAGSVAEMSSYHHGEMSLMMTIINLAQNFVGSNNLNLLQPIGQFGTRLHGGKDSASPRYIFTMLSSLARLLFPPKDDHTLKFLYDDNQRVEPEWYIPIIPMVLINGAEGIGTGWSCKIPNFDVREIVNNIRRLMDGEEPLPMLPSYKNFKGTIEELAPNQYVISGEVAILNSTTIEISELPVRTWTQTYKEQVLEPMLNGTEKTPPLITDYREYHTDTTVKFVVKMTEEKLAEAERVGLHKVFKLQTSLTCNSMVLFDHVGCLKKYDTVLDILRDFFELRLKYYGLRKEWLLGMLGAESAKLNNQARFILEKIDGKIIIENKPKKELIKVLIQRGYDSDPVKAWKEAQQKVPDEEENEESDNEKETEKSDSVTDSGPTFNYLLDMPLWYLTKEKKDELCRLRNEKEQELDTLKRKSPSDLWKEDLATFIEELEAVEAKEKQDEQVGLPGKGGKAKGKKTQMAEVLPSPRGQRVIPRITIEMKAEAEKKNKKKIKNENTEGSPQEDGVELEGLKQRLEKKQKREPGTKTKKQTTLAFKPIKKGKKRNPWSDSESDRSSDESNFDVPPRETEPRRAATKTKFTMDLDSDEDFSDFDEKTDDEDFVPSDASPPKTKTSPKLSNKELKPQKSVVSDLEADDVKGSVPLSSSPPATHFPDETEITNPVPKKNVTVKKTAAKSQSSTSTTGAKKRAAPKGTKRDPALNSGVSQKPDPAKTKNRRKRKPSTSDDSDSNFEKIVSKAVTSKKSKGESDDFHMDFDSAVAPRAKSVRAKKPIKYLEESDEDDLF

## CC(C)(O)[C@@H]1Cc2c(cc(O)c3c(=O)c(-c4ccc(O)cc4)coc23)O1
MKN-1 [1]
  IC50: 327 nM
MKN-74
  GI50: 6920 nM
GCIY [2]
  Activity: 22.4%
[3]
  inhibition: Active
GCIY [4]
  Activity: Dose-dependent effect
DMS-114
  GI50: 380 nM
OVCAR-8
  GI50: 417 nM
PC-3
  GI50: > 100000 nM
[5]
  GI50: 1740 nM
GCIY [6]
  Activity: Tde
NCI-H460
  GI50: 70.8 nM
MKN-1 [7]
  GI50: 295 nM
SK-OV-3
  GI50: 427 nM
MKN-1 [8]
  Activity: 83.6%
GCIY [9]
  IC50: 270 nM
[10]
  inhibition: Active
MKN-1 [11]
  Activity: 4.9%
SF-295
  GI50: 275 nM
[12]
  GI50: 631 nM
MKN-1 [13]
  Activity: 12.3%
ACHN
  GI50: 182 nM
HT-29
  GI50: 10500 nM
LOX IMVI
  GI50: 257 nM
OVCAR-4
  GI50: > 100000 nM
MKN-7
  GI50: 4370 nM
MKN-1 [14]
  Activity: 24.9%
RXF 631
  GI50: 5010 nM
GCIY [15]
  Activity: 40.4%
SNB-78
  GI50: 5890 nM
A549
  GI50: 120 nM
DMS-273
  GI50: 195 nM
HCT-116
  GI50: 1070 nM
[16]
  GI50: 6760 nM
OVCAR-5
  GI50: 1350 nM
[17]
  Activity: Non-Toxic
MKN-1 [18]
  Activity: Tde
NCI-H522
  GI50: 1580 nM
GCIY [19]
  Activity: 87.3%
MDA-MB-231
  GI50: 1740 nM
HCT-15
  GI50: 676 nM
OVCAR-3
  GI50: 2880 nM
DU-145
  GI50: 316 nM
HCC 2998
  GI50: 2040 nM
MKN-1 [20]
  Activity: Dose-dependent effect
MKN-1 [21]
  Activity: Dose-dependent effect
